Results as given in US7057171B2, “Patch-clamping and its use in analyzing subcellular features” (priority 2001, dated 2006).

Tested on: Cl^− channel
Experiment: Whole-cell Cl^− current recording (patch-clamp) in rat cardiac myocytes
Format: cell-based
Settings: rat left ventricle cardiac myocytes, currents measured at plateau level, 30 μM nifedipine in bath
From the text: FIG. 4: Channels with 3 different current types were found. (A) A small-conductance inwardly rectifying channel (ClSIR). (B) A large-conductance inwardly rectifying channel (ClLIR). (C) An outwardly rectifying channel (ClOR). For each type of channel, a family of currents at different voltages (on the left side of the panels), current-voltage characteristics (on the top right side of the panels) and channel densities at different surface positions (on the bottom right side of the panels) are shown. The mean reversal potential was −31.2±2.4 mV (n=5) for (A)−31.8±3.4 mV (n=5) for (B) and −33.5±3.0 mV (n=4) for (C). (D) Calculated whole-cell current extrapolated from single-channel currents. (E) Current-voltage characteristics of experimental whole-cell currents obtained from 22 cells (black circles). […] Currents were measured at plateau level.
Left ventricle cells from the rat myocardium were isolated as previously described (Harding et al, J. Mol. Cell Cardiol. 20:635–647, 1988). Cells were allowed to attach to polystyrene cell culture dishes filled with bath solutions.
the bath solution contained (in mM) K-glutamate 120, KCl 25, MgCl2 2, CaCl2 1, EGTA 2, glucose 10 and HEPES 10, adjusted to pH 7.4 with CsOH. The pipette backfill solution contained N-methyl-D-glucamine-Cl (NMDG-Cl) 108, HEPES 5, glucose 5.5 and EGTA 1, adjusted to pH 7.4 with TEA-OH. […]

SMILES	Block of experimental whole-cell Cl^− currents (1 mM, n=5)	Block of experimental whole-cell Cl^− currents (300 μM, n=12)
[Cd+2] [Cd^2+]	almost completely blocked	
CC(=O)Nc1ccc(C=Cc2ccc(N=C=S)cc2S(=O)(=O)O)c(S(=O)(=O)O)c1 [SITS, stilbene disulfonate]		partially blocked
